Experiment: excess molar enthalpy (molar enthalpy of mixing); xn = mol fraction of the nth substance listed
Conditions: 298.15 K, 101 kPa, Liquid, Calvet calorimetry

COP(=O)(OC)OC [trimethyl orthophosphate] + CO
Conditions	excess molar enthalpy [kcal/mol]
x1 = 0.037	0.0118
x1 = 0.0739	0.0211
x1 = 0.1033	0.0268
x1 = 0.1428	0.0329
x1 = 0.1876	0.0357
x1 = 0.2569	0.054
x1 = 0.3086	0.0508
x1 = 0.3658	0.048
x1 = 0.4047	0.0444
x1 = 0.4619	0.0414
x1 = 0.51	0.0352
x1 = 0.562	0.0302
x1 = 0.6405	0.0236
x1 = 0.7079	0.0156
x1 = 0.783	0.0102
x1 = 0.8383	0.00676
x1 = 0.9	0.00333
x1 = 0.9647	0.000473

COP(=O)(OC)OC [trimethyl orthophosphate] + CCCCO
Conditions	excess molar enthalpy [kcal/mol]
x1 = 0.0497	0.0957
x1 = 0.1005	0.176
x1 = 0.1531	0.24
x1 = 0.2071	0.292
x1 = 0.2625	0.322
x1 = 0.3199	0.344
x1 = 0.3794	0.353
x1 = 0.439	0.351
x1 = 0.5024	0.345
x1 = 0.5663	0.329
x1 = 0.6329	0.311
x1 = 0.7016	0.271
x1 = 0.7727	0.222
x1 = 0.8458	0.162
x1 = 0.9216	0.088

COP(=O)(OC)OC [trimethyl orthophosphate] + CCO
Conditions	excess molar enthalpy [kcal/mol]
x1 = 0.0322	0.0369
x1 = 0.0665	0.0735
x1 = 0.1032	0.109
x1 = 0.1426	0.132
x1 = 0.185	0.151
x1 = 0.2305	0.168
x1 = 0.2796	0.179
x1 = 0.3327	0.197
x1 = 0.3671	0.208
x1 = 0.4156	0.209
x1 = 0.454	0.205
x1 = 0.5232	0.192
x1 = 0.6	0.171
x1 = 0.6836	0.144
x1 = 0.7775	0.111
x1 = 0.8821	0.0625
x1 = 0.928	0.0422
x1 = 0.9752	0.021

COP(=O)(OC)OC [trimethyl orthophosphate] + CCCO
Conditions	excess molar enthalpy [kcal/mol]
x1 = 0.0408	0.0654
x1 = 0.0836	0.126
x1 = 0.1284	0.173
x1 = 0.1753	0.212
x1 = 0.225	0.235
x1 = 0.2769	0.256
x1 = 0.3319	0.279
x1 = 0.39	0.293
x1 = 0.4508	0.296
x1 = 0.5139	0.282
x1 = 0.5701	0.27
x1 = 0.6274	0.246
x1 = 0.6875	0.219
x1 = 0.7351	0.197
x1 = 0.7834	0.167
x1 = 0.8518	0.117
x1 = 0.9054	0.0789
x1 = 0.9614	0.0416

— the NIST ThermoML archive (doi:10.1016/j.tca.2008.02.015)
